From EP2468718A1, “Cabanillasin, a new antifungal compound, produced by entomopathogenic xenorhabdus cabanillasii” (Nosopharm, priority 2010, dated 2012)
Where two headings read alike, the source gives them in different places.

Key:
Test in all cases: Antifungal susceptibility testing, M38-A microdilution method (filamentous fungi)
[1] = system: Fusarium oxysporum clinical strain; assay type: cell-based; details: read-out: % of growth inhibition
Description: (§1) Cabanillasin activity was tested against different fungal human pathogens: ascomycetes yeasts (Candida albicans ATCC 90029, Candida Glabrata ATCC 90030, Candida krusei ATCC 6258 and Candida lusitaniae CBS 6936), basidiomycetes yeasts (Cryptococcus neoformans clinical strain), ascomycetes filamentous fungi (Aspergilus fumigatus clinical strain, Fusarium oxysporum clinical strain) and zygomycetes filamentous fungi (Rhizopus oryzae environemental strain) by the M38-A microdilution method with RPMI 1640 medium (RPMI 1640, MOPS 160 mM, glucose 18 g/L, pH 7) as recommended in the […]. The NCCLS M27-A2 broth microdilution method (NCCLS) was used when yeasts were tested.
(§2) Yeasts and filamentous inoculi were prepared on YPD medium (yeast extract 10 g/L, peptone 10 g/L and glucose 20 g/L) and Malt medium (malt extract 20 g/L) respectively. The densities of inoculi were adjusted by dilution in RPMI 1640 broth to a value ranged from 5.10^2 to 5.10^3 CFU/mL for yeasts isolates and 5.10^3 to 5.10^4 CFU/mL for filamentous fungi. Microdilution trays (96 U-bottom shaped) containing 190 µL fungal inoculum were added with 10 µL Cabanillasin solution (final concentration ranging from 50 to 0.098 mg/L for all fungi). After inoculation of the trays, all microdilution trays were incubated at 35°C in ambient air. The culture absorbance was measured at 600 nm, 24 h and 48 h after the beginning of the experiments for the yeasts and 48 h and 72 h after the beginning of the experiments for filamentous fungi and Cryptococcus neoformans. The activity results correspond to a percentage of growth inhibition ((1-Abs600 nm culture with Cabanillasin)/ Abs600 nm culture without Cabanillasin) x 100.
(§3) The IC50 value is the concentration at which inhibition of growth is equal to 50%. MICs for Candida species were determined at 24 h and 48 h and corresponded to 100% of growth inhibition. Amphotericin B was provided as standard (final concentration ranging from 16 to 0.03 mg/L for all fungi). Experiments were done in duplicate.

[2] = system: Rhizopus oryzae environemental strain; assay type: cell-based; details: Rhizopus arrhizus, read-out: % of growth inhibition
Description: as §1, §2, §3

[3] = system: Aspergilus fumigatus clinical strain; assay type: cell-based, Aspergillus fumigatus; details: Aspergillus fumigatus, read-out: % of growth inhibition
Description: as §1, §2, §3

Structure (SMILES): C[C@@H]1[C@H](O)[C@@H](C)/C=C/C=C/C=C/C=C/C=C/C=C/C=C/[C@H](O[C@@H]2O[C@H](C)[C@@H](O)[C@H](N)[C@@H]2O)C[C@@H]2O[C@](O)(C[C@@H](O)C[C@@H](O)[C@H](O)CC[C@@H](O)C[C@@H](O)CC(=O)O[C@H]1C)C[C@H](O)[C@H]2C(=O)O [Amphotericin B, reference compound]
- inhibition at 0.03 µg/mL ([1]; 48 h incubation): 14%
- inhibition at 0.03 µg/mL ([1]; 72 h incubation): 0%
- inhibition at 0.06 µg/mL ([1]; 48 h incubation): 26.3%
- inhibition at 0.06 µg/mL ([1]; 72 h incubation): 0%
- inhibition at 0.12 µg/mL ([1]; 48 h incubation): 39.8%
- inhibition at 0.12 µg/mL ([1]; 72 h incubation): 24.6%
- inhibition at 0.25 µg/mL ([1]; 48 h incubation): 65.2%
- inhibition at 0.25 µg/mL ([1]; 72 h incubation): 49.8%
- inhibition at 0.5 µg/mL ([1]; 48 h incubation): 100%
- inhibition at 0.5 µg/mL ([1]; 72 h incubation): 90.2%
- inhibition at 1 µg/mL ([1]; 48 h incubation): 100%
- inhibition at 1 µg/mL ([1]; 72 h incubation): 100%
- inhibition at 2 µg/mL ([1]; 48 h incubation): 100%
- inhibition at 2 µg/mL ([1]; 72 h incubation): 100%
- inhibition at 4 µg/mL ([1]; 48 h incubation): 100%
- inhibition at 4 µg/mL ([1]; 72 h incubation): 100%
- inhibition at 8 µg/mL ([1]; 48 h incubation): 100%
- inhibition at 8 µg/mL ([1]; 72 h incubation): 100%
- inhibition at 16 µg/mL ([1]; 48 h incubation): 100%
- inhibition at 16 µg/mL ([1]; 72 h incubation): 100%
- inhibition at 0.03 µg/mL ([2]; 48 h incubation): 26.7%
- inhibition at 0.03 µg/mL ([2]; 72 h incubation): 0%
- inhibition at 0.06 µg/mL ([2]; 48 h incubation): 35%
- inhibition at 0.06 µg/mL ([2]; 72 h incubation): 0%
- inhibition at 0.12 µg/mL ([2]; 48 h incubation): 22%
- inhibition at 0.12 µg/mL ([2]; 72 h incubation): 0%
- inhibition at 0.25 µg/mL ([2]; 48 h incubation): 43.9%
- inhibition at 0.25 µg/mL ([2]; 72 h incubation): 12%
- inhibition at 0.5 µg/mL ([2]; 48 h incubation): 47.4%
- inhibition at 0.5 µg/mL ([2]; 72 h incubation): 62.1%
- inhibition at 1 µg/mL ([2]; 48 h incubation): 92.2%
- inhibition at 1 µg/mL ([2]; 72 h incubation): 66%
- inhibition at 2 µg/mL ([2]; 48 h incubation): 100%
- inhibition at 2 µg/mL ([2]; 72 h incubation): 77.4%
- inhibition at 4 µg/mL ([2]; 48 h incubation): 100%
- inhibition at 4 µg/mL ([2]; 72 h incubation): 100%
- inhibition at 8 µg/mL ([2]; 48 h incubation): 100%
- inhibition at 8 µg/mL ([2]; 72 h incubation): 100%
- inhibition at 16 µg/mL ([2]; 48 h incubation): 100%
- inhibition at 16 µg/mL ([2]; 72 h incubation): 100%
- inhibition at 0.03 µg/mL ([3]; 48 h incubation): 3%
- inhibition at 0.03 µg/mL ([3]; 72 h incubation): 0%
- inhibition at 0.06 µg/mL ([3]; 48 h incubation): 33.5%
- inhibition at 0.06 µg/mL ([3]; 72 h incubation): 0%
- inhibition at 0.12 µg/mL ([3]; 48 h incubation): 37.2%
- inhibition at 0.12 µg/mL ([3]; 72 h incubation): 41.5%
- inhibition at 0.25 µg/mL ([3]; 48 h incubation): 100%
- inhibition at 0.25 µg/mL ([3]; 72 h incubation): 85.2%
- inhibition at 0.5 µg/mL ([3]; 48 h incubation): 100%
- inhibition at 0.5 µg/mL ([3]; 72 h incubation): 100%
- inhibition at 1 µg/mL ([3]; 48 h incubation): 100%
- inhibition at 1 µg/mL ([3]; 72 h incubation): 100%
- inhibition at 2 µg/mL ([3]; 48 h incubation): 100%
- inhibition at 2 µg/mL ([3]; 72 h incubation): 100%
- inhibition at 4 µg/mL ([3]; 48 h incubation): 100%
- inhibition at 4 µg/mL ([3]; 72 h incubation): 100%
- inhibition at 8 µg/mL ([3]; 48 h incubation): 100%
- inhibition at 8 µg/mL ([3]; 72 h incubation): 100%
- inhibition at 16 µg/mL ([3]; 48 h incubation): 100%
- inhibition at 16 µg/mL ([3]; 72 h incubation): 100%
